Laboratory results taken from publication PMC8449129, “Single tracer-based protocol for broad-spectrum kinase profiling in live cells with NanoBRET” (STAR Protocols, 2021).

Assays:
Assay in all cases: cell-based
Set-up in all cases: NanoBRET live-cell target engagement; % occupancy from displacement of tracer K10 on NanoLuc-kinase fusions, mean n=3
Settings in all cases: HEK293, read-out: % inhibition
IKBKE = IKBKE (Homo sapiens, UniProt Q14164)
Procedure, shortened: (§1)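 Live-cell NanoBRET target engagement: cells expressing kinase–NanoLuc fusion with tracer treated with compound 2 h at 37 °C, 5% CO2. BRET read from donor (450 nm) and acceptor (610/630 nm) emission with 20 μM extracellular NanoLuc inhibitor; % occupancy calculated relative to tracer+DMSO and zero-BRET controls.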

NEK1 = NEK1 (Homo sapiens, UniProt Q96PY6)
Procedure, shortened: as §1

HIPK3 = HIPK3 (Homo sapiens, UniProt Q9H422)
Procedure, shortened: as §1

PHKG1 = PHKG1 (Homo sapiens, UniProt Q16816)
Procedure, shortened: as §1

RIPK2 = RIPK2 (Homo sapiens, UniProt O43353)
Procedure, shortened: as §1

CAMK1 = CAMK1 (Homo sapiens, UniProt Q14012)
CAMK1, sequence (Q14012 whole entry): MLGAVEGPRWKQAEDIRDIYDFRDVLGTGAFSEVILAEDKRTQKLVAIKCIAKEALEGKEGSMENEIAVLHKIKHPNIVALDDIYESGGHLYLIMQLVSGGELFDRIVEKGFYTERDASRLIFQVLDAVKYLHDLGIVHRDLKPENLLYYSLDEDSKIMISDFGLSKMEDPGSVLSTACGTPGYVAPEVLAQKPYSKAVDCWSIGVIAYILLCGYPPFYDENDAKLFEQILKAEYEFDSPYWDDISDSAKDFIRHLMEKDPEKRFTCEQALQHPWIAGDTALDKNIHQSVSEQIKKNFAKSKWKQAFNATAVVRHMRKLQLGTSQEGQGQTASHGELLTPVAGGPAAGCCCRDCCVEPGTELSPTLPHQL
Procedure, shortened: as §1

PAK4 = PAK4 (Homo sapiens, UniProt O96013)
Procedure, shortened: as §1

MARK2 = MARK2 (Homo sapiens, UniProt Q7KZI7)
MARK2, sequence (Q7KZI7 whole entry): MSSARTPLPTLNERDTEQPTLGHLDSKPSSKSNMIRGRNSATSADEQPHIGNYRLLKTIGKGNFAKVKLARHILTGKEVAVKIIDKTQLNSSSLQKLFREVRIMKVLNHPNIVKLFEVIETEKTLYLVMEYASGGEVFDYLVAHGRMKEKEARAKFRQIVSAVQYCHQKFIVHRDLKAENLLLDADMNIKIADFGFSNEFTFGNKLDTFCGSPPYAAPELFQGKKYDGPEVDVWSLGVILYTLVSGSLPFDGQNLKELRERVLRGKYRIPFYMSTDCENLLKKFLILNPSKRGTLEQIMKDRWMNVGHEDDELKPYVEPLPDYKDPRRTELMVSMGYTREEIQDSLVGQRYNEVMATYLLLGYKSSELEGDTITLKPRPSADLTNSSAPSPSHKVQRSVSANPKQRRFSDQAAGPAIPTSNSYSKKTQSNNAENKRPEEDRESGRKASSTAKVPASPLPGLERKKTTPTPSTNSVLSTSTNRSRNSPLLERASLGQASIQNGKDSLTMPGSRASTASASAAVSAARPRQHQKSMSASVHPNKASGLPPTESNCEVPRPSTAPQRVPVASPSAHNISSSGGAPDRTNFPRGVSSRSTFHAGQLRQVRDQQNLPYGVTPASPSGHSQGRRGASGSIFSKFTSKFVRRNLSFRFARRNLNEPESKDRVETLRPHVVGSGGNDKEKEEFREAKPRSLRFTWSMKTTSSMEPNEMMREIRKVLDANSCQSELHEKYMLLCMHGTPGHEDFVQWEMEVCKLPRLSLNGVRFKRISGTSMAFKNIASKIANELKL
Procedure, shortened: as §1

MAST4 = MAST4 (Homo sapiens, UniProt O15021)
Procedure, shortened: as §1

STK36 = STK36 (Homo sapiens, UniProt Q9NRP7)
STK36, sequence (Q9NRP7 whole entry): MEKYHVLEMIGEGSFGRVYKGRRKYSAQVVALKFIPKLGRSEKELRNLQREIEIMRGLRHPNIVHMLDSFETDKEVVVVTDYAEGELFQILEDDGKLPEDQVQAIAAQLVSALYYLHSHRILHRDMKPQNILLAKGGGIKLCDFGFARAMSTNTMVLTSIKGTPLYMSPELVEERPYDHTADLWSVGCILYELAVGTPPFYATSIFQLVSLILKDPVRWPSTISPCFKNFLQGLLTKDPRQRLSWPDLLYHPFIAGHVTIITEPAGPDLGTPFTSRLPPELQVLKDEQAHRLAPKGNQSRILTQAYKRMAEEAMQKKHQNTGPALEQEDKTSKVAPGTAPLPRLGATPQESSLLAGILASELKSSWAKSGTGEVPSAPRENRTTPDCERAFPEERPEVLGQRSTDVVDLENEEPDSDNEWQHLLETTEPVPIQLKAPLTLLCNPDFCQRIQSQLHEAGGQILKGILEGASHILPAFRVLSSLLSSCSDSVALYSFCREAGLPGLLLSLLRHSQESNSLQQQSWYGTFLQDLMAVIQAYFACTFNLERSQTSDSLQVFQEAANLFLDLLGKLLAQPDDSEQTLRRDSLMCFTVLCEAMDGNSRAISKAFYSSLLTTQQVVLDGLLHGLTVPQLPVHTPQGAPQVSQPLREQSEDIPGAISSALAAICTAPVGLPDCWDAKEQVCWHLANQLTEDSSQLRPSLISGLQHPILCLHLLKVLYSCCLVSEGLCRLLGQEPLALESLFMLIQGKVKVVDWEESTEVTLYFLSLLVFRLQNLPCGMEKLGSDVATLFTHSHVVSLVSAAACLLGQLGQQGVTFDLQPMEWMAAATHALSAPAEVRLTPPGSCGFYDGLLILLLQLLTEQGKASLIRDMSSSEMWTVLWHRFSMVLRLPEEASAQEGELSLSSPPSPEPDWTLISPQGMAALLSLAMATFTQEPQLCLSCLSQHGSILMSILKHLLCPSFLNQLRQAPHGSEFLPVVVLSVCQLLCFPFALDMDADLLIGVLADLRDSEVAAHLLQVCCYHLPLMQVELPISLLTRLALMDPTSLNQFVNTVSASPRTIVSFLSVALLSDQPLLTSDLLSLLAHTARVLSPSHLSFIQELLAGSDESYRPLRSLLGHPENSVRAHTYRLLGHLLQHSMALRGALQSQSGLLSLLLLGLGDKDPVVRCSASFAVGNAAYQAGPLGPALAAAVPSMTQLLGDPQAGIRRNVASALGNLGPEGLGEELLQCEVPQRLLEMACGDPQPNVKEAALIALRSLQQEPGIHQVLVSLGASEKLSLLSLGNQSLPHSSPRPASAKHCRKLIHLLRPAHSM
Procedure, shortened: as §1

CDK17 = CDK17 (Homo sapiens, UniProt Q00537)
Procedure, shortened: as §1

CDK18 = CDK18 (Homo sapiens, UniProt Q07002)
CDK18, sequence (Q07002 whole entry): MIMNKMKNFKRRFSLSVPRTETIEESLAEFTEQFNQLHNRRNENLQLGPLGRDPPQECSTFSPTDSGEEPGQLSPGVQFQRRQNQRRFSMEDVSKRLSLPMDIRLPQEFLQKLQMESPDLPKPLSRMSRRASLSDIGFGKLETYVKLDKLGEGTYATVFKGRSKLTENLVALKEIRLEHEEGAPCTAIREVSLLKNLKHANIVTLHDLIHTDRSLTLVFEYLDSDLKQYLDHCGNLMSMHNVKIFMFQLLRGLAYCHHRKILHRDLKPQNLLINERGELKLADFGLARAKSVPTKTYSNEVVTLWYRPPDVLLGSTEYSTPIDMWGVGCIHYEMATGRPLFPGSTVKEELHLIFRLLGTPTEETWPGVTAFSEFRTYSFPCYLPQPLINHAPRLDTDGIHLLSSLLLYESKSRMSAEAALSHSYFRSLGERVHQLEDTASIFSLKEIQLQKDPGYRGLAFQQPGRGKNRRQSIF
Procedure, shortened: as §1

PRKAA2 = PRKAA2 (Homo sapiens, UniProt P54646)
Procedure, shortened: as §1

RPS6KA4 = RPS6KA4 (Homo sapiens, UniProt O75676)
RPS6KA4, sequence (O75676 whole entry): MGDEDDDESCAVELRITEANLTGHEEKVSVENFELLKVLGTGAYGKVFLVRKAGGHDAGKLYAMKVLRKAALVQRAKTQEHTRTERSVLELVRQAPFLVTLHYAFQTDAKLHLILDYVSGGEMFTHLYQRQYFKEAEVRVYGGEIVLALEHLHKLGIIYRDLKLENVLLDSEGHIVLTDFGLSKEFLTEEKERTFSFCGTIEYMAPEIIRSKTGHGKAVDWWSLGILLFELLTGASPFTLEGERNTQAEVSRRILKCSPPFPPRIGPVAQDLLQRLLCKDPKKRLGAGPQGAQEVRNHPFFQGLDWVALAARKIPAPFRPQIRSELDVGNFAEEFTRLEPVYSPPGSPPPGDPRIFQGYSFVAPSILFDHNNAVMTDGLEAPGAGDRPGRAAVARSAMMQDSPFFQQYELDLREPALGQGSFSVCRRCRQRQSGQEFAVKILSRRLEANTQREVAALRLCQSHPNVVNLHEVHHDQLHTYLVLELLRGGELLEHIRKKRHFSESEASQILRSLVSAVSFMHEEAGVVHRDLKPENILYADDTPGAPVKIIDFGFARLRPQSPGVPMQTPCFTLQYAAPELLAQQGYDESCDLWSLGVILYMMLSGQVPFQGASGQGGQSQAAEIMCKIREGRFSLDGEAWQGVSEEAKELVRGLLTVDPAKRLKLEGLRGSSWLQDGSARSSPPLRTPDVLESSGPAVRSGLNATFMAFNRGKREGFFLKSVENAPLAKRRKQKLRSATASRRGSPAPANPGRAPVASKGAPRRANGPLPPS
Procedure, shortened: as §1

RPS6KA6 = RPS6KA6 (Homo sapiens, UniProt Q9UK32)
RPS6KA6, sequence (Q9UK32 whole entry): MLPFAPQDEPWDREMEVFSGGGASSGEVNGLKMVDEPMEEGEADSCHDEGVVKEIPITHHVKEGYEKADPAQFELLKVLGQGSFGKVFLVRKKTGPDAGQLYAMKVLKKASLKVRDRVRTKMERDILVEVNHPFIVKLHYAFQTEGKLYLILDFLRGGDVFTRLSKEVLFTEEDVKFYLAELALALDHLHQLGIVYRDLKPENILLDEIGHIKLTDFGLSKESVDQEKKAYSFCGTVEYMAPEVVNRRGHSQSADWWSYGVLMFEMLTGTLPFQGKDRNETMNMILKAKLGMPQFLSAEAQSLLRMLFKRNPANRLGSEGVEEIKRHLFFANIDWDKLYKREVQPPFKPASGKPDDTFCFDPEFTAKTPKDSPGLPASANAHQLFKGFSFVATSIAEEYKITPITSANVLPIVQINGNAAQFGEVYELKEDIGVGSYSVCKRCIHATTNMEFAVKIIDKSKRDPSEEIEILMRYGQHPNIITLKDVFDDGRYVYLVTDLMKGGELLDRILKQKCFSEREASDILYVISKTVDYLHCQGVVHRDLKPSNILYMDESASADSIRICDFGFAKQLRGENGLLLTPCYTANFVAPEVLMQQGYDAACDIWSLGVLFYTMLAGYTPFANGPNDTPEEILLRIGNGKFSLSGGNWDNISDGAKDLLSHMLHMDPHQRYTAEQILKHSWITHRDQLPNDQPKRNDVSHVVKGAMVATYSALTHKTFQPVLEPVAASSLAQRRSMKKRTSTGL
Procedure, shortened: as §1

PRKX = PRKX (Homo sapiens, UniProt P51817)
PRKX, sequence (P51817 whole entry): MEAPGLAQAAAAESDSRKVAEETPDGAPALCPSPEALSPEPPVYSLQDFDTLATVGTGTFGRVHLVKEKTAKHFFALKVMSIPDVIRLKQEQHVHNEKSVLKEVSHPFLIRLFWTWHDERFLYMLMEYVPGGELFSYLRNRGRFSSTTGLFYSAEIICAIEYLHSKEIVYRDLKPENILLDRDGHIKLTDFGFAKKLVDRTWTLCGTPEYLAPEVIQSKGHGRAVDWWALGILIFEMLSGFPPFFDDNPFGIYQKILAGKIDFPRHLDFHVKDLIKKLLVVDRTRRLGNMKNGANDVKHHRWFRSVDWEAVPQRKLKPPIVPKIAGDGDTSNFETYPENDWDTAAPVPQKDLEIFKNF
Procedure, shortened: as §1

TEC = TEC (Homo sapiens, UniProt P42680)
Procedure, shortened: as §1

MLTK = target: T1, MLTK (Homo sapiens, UniProt Q9NYL2)
T1 construct: gene MAP3K20
Procedure, shortened: as §1

inhibition at 1 µM (IKBKE): 21% | inhibition at 1 µM (NEK1): 3% | inhibition at 1 µM (HIPK3): -4% | inhibition at 1 µM (PHKG1): -3% | inhibition at 1 µM (RIPK2): 43% | inhibition at 1 µM (CAMK1): 7% | inhibition at 1 µM (PAK4): 1% | inhibition at 1 µM (MARK2): 4% | inhibition at 1 µM (MAST4): 6% | inhibition at 1 µM (STK36): -6% | inhibition at 1 µM (CDK17): 3% | inhibition at 1 µM (CDK18): 2% | inhibition at 1 µM (PRKAA2): -6% | inhibition at 1 µM (RPS6KA4): -11% | inhibition at 1 µM (RPS6KA6): -10% | inhibition at 1 µM (PRKX): -14% | inhibition at 1 µM (TEC): -7% | inhibition at 1 µM (MLTK): -3%
Structure (SMILES): C[C@@H](Oc1cc(-c2cnn(C3CCNCC3)c2)cnc1N)c1c(Cl)ccc(F)c1Cl [crizotinib]
